One assay concerns the target T1, Drosophila OR10a (Drosophila melanogaster, UniProt Q9VYZ1).
T1 construct: expressed in transfected cells
T1 sequence (Q9VYZ1 1-406): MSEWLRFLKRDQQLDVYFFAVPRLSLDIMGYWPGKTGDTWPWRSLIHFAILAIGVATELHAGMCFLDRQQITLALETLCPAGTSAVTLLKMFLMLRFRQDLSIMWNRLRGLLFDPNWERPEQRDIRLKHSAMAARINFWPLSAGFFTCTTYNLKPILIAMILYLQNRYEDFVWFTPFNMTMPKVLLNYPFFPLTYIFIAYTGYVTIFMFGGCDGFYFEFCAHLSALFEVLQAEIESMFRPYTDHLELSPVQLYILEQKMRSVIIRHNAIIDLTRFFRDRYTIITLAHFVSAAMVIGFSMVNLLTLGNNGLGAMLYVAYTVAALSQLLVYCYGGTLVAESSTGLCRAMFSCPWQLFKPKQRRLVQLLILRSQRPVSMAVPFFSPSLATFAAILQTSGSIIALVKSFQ
T1 sequence (Q9VNB5 1-486 partner): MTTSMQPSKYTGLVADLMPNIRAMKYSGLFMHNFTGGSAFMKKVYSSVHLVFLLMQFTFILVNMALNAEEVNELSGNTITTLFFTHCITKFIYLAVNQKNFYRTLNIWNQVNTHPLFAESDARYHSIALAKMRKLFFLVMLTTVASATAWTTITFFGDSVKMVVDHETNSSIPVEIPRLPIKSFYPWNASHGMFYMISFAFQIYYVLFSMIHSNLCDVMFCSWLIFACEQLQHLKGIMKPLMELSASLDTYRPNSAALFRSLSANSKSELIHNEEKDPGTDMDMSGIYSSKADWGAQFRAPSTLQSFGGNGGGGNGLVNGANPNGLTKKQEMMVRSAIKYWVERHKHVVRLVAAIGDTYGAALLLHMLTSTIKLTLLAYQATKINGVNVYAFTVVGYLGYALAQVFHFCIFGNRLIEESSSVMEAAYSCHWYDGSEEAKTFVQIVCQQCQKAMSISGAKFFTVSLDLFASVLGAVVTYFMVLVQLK
The experiment in a line: Calcium ion fluorescence (GCaMP6) assay, OR10a stable HEK293 cell line. It is filed as cell-based. A digest of the protocol:
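HEK293 lines stably expressing each Drosophila OR with GCaMP6, doxycycline-induced (1 μg/mL) 48 or 72 h. Fluorescence recorded 5 s baseline then 30 s after VOC injection at pH 7.3; ΔF=(FMAX−F0)/F0, normalized to 50 µM VUAA1 response per line, triplicate wells averaged; concentration series 0.01–100 μM.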

The next assay concerns the target T2, Drosophila OR71a (Drosophila melanogaster, UniProt Q9VUK5).
T2 construct: expressed in transfected cells
T2 sequence (Q9VUK5 1-378): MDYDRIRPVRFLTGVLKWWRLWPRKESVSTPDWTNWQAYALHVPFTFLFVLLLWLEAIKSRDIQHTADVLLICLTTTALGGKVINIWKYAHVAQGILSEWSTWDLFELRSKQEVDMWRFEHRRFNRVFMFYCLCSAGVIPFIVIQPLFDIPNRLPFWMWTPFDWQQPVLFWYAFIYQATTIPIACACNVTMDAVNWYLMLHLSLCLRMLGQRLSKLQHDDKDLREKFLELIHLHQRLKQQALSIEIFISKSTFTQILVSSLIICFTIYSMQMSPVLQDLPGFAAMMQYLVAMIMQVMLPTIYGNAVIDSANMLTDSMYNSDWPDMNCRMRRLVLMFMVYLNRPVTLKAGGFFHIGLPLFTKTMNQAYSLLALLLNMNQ
T2 sequence (Q9VNB5 1-486 partner): T1 sequence (Q9VNB5 1-486 partner)
The experiment in a line: Calcium ion fluorescence (GCaMP6) assay, OR71a stable HEK293 cell line. Particulars: for Average response: VUAA1-normalized response, mean of biological replicates; for activation at 1 µM / activation at 10 µM / activation at 100 µM: HEK293, read-out: OR71a response (VUAA1-normalized response). It is filed as cell-based. How it is done: These VUAA1 normalized ∆F values were used to compare the different receptors and ligands.
The concentration-dependent effect of the reference ligands on their cognate cell lines was examined in more detail. Twelve different ligand concentrations were measured on each cell line in an overall 0.01 μM to 100 μM concentration range with 5 repetitions with three technical replicates each time.
Twelve thousand to 18,000 cells were plated into each well of a black wall, transparent bottom 384-well microplate (Greiner) 48 h or 72 h before the measurements and were simultaneously treated with 1 μg/mL doxycycline. […] The plate has 24 columns, thus we could record responses in up to eight different cell lines in each plate. On the day of the experiment, the growth medium was replaced with 20 µL assay buffer/well (140 mM NaCl, 5 mM KCl, 2 mM CaCl2, 1 mM MgCl2, 5 mM HEPES-Na, 20 mM glucose, pH 7.3, 340 mOsm). […] Baseline fluorescence (F0) was recorded for 5 s, after which 7 µL VOC buffer (140 mM NaCl, 5 mM KCl, 2 mM CaCl2, 1 mM MgCl2, 5 mM HEPES-Na, 31 mM glucose, 0.1% DMSO, pH 7.3, 340 mOsm) was injected into each well in one row and the fluorescence response was recorded for an additional 30 s, at a rate of one read/sec. VOC solutions (VOC buffer with 4× concentration of the final measured VOC concentration, 9 µL/well was injected) were measured on the same wells in a second round with the same protocol. Each individual concentration of a specific VOC sample was recorded in three wells for the same cell line on the same microplate. The raw data were exported in xls file format, F0 and FMAX values, and the fluorescence intensity changes (∆F) were calculated in Excel (Microsoft) (Supplementary file Data summary.xlsx) using the following equation: ΔF=FMAX-F0/F0 (see also Fig. 1C). On each plate, we recorded the response of each cell line to 50 µM VUAA1. The average of these ∆F values of each cell line were used to calculate the VUAA1-normalized values for the rest of the plate, by dividing VOC response ∆F values by the average VUAA1 response ∆F value of the corresponding OR cell line. Each VOC-OR combination was measured three times as technical replicates. […] The average of these replicates were used as one ∆F and VUAA1-normalized ∆F in the following analysis.
In the next rows we tested the reference VOCs (or other VOCs known to activate the corresponding cell lines), in order to test if all cell lines are responsive. The remaining rows were used to test VOCs with unknown effect.
The recorded FMAX, F0, ∆F, VUAA1-normalized ∆F values, as well as the OR name, the name of the tested sample, and the final concentration for each well were copied into supplementary file Data summary.xlsx, that was used to summarize all the plates recorded. Here, the averages of the measurements were calculated for each receptor-VOC-concentration combination.

[1] abbreviates: HEK293, 1 μM VOC, 50 μM VUAA1 = 1, responses not exceeding 0.05 considered 0, read-out: OR10a Average response (VUAA1-normalized).
Setting [2] is: HEK293, 10 μM VOC, 50 μM VUAA1 = 1, responses not exceeding 0.05 considered 0, read-out: OR10a Average response (VUAA1-normalized).
The mark [3] stands for this setting: HEK293, 100 μM VOC, 50 μM VUAA1 = 1, responses not exceeding 0.05 considered 0, read-out: OR10a Average response (VUAA1-normalized).
Where [4] appears, read: ligand concentration 1 (unit not given), 0.05 threshold, values below shown as 0.
Setting [5] is: ligand concentration 10 (unit not given), 0.05 threshold, values below shown as 0.
[6] abbreviates: ligand concentration 100 (unit not given), 0.05 threshold, values below shown as 0.
Setting [7] is: HEK293, read-out: OR10a response (VUAA1-normalized response), VOC concentration 1 μM.
[8] abbreviates: HEK293, read-out: OR10a response (VUAA1-normalized response), VOC concentration 10 μM.
The mark [9] stands for this setting: HEK293, read-out: OR10a response (VUAA1-normalized response), VOC concentration 100 μM.
The mark [10] stands for this setting: concentration 1, normalized fluorescence change, values below 0.05 threshold given as 0.
[11] abbreviates: concentration 10, normalized fluorescence change, values below 0.05 threshold given as 0.
Setting [12] is: concentration 100, normalized fluorescence change, values below 0.05 threshold given as 0.

Read-outs that look alike come from different tables or passages of the source.

In the case of `CCCCCCCCCCC` [undecane], on Drosophila OR10a (setting [1]), the activation at 1 µM was found to be 0%. For the same compound, the activation at 10 µM at Drosophila OR10a (setting [2]) is 0%. At Drosophila OR10a (setting [3]), the activation at 100 µM came to 0%. The “OR10a response (VUAA1-normalized) at 1 μM” value on Drosophila OR10a (OR10a cell line, VOC concentration 1 μM) is on record as 0.00. For the same compound, the “OR10a response (VUAA1-normalized) at 10 μM” value at Drosophila OR10a (OR10a cell line, VOC concentration 10 μM) was 0.00. Moreover, at Drosophila OR10a (OR10a cell line, VOC concentration 100 μM), the “OR10a response (VUAA1-normalized) at 100 μM” value is reported as 0.00. Also, the “DF norm AVERAGE OR10a” value on Drosophila OR10a (setting [4]), at Drosophila OR10a (setting [5]) and on Drosophila OR10a (setting [6]) was 0 each time. Further, the “OR71a response (VUAA1-normalized) at 1 μM” value on Drosophila OR71a (OR71a cell line, VOC concentration 1 μM) is on record as 0.00. On Drosophila OR71a (OR71a cell line, VOC concentration 10 μM), the “OR71a response (VUAA1-normalized) at 10 μM” value is 0.00. Also, the “OR71a response (VUAA1-normalized) at 100 μM” value at Drosophila OR71a (OR71a cell line, VOC concentration 100 μM) is 0.00. In addition, the Average response at Drosophila OR71a (OR71a cell line, cc. 1 µM) is reported as 0.00; on Drosophila OR71a (OR71a cell line, cc. 10 µM), 0.00; on Drosophila OR71a (OR71a cell line, cc. 100 µM), 0.00847. Also, the “DF norm AVERAGE OR71a” value at Drosophila OR71a (setting [4]), on Drosophila OR71a (setting [5]) and at Drosophila OR71a (setting [6]) was 0 in each case.
Turning to `CC/C=C\CCO` [E-3-hexenol], the entries for the “OR10a response (VUAA1-normalized response)” value at Drosophila OR10a (VOC concentration 1 μM), on Drosophila OR10a (VOC concentration 10 μM) and on Drosophila OR10a (VOC concentration 100 μM) were 0.00, 0.00 and 0.074, respectively. Also, the “OR71a response (VUAA1-normalized response)” value at Drosophila OR71a (VOC concentration 1 μM), on Drosophila OR71a (VOC concentration 10 μM) and at Drosophila OR71a (VOC concentration 100 μM) was 0.00 in each case.
For the compound `C=C1CC/C=C(\C)CC[C@@H]2[C@@H]1CC2(C)C` [(-)-trans-caryophyllene], the activation at 1 µM on Drosophila OR10a (setting [1]) came to 14%; on Drosophila OR10a (setting [7]) it was 14%; at Drosophila OR71a, 0%. Further, the activation at 10 µM at Drosophila OR10a (setting [2]) turned out to be 20%; on Drosophila OR10a (setting [8]) it was 20%; on Drosophila OR71a it was 0%. The activation at 100 µM at Drosophila OR10a (setting [3]) was determined as 6.61%; on Drosophila OR10a (setting [9]), 6.61%; on Drosophila OR71a it was 0%. In addition, the Average response at Drosophila OR71a (OR71a cell line, cc. 1 µM) was 0.0273; at Drosophila OR71a (OR71a cell line, cc. 10 µM), 0.00; at Drosophila OR71a (OR71a cell line, cc. 100 µM), 0.00. Further, the “DF norm AVERAGE OR71a” value on Drosophila OR71a (setting [10]), on Drosophila OR71a (setting [11]) and at Drosophila OR71a (setting [12]) was 0 in each case.
`CCCC(O)CC` (stereo not shown) [3-hexanol]: the results for the activation at 1 µM on Drosophila OR10a (setting [1]), on Drosophila OR10a (setting [7]) and on Drosophila OR71a were 16%, 16% and 0%, respectively. For the same compound, the activation at 10 µM on Drosophila OR10a (setting [2]) worked out at 2.57%; on Drosophila OR10a (setting [8]) it was 0%; at Drosophila OR71a it was 6%. The activation at 100 µM was determined as 6% at Drosophila OR10a (setting [3]), 6% on Drosophila OR10a (setting [9]) and 0% on Drosophila OR71a. In addition, the Average response on Drosophila OR71a (OR71a cell line, cc. 1 µM) is listed as 0.00; at Drosophila OR71a (OR71a cell line, cc. 10 µM), 0.06; on Drosophila OR71a (OR71a cell line, cc. 100 µM), 0.0155. Besides, the figures for the “DF norm AVERAGE OR71a” value on Drosophila OR71a (setting [10]), at Drosophila OR71a (setting [11]) and at Drosophila OR71a (setting [12]) were 0, 0.06016 and 0, respectively.
As for `CCCCCO` [1-pentanol], on Drosophila OR10a, the “DF norm AVERAGE OR10a” value came out at 0. Moreover, the activation at 1 µM on Drosophila OR10a (setting [1]), at Drosophila OR10a (setting [7]) and on Drosophila OR71a was 0% each time. Further, the activation at 10 µM at Drosophila OR10a (setting [2]), at Drosophila OR10a (setting [8]) and at Drosophila OR71a was 0% in each case. For the same compound, the activation at 100 µM at Drosophila OR10a (setting [3]), at Drosophila OR10a (setting [9]) and on Drosophila OR71a was 0% in each case. Also, the Average response on Drosophila OR71a (OR71a cell line, cc. 1 µM) was 0.0261; on Drosophila OR71a (OR71a cell line, cc. 10 µM) it was 0.00; at Drosophila OR71a (OR71a cell line, cc. 100 µM), 0.00. In addition, the “DF norm AVERAGE OR71a” value at Drosophila OR71a (setting [10]), at Drosophila OR71a (setting [11]) and at Drosophila OR71a (setting [12]) was 0 each time.

For the origin of these results see publication PMC10709440, “High-throughput ligand profile characterization in novel cell lines expressing seven heterologous insect olfactory receptors for the detection of volatile plant biomarkers” (Scientific Reports, 2023).
